According to ChEMBL document CHEMBL1130987, “The asymmetric synthesis and in vitro characterization of succinyl mercaptoalcohol and mercaptoketone inhibitors of matrix metalloproteinases” (Bioorg Med Chem Lett, 1998):

What follows are molecules tested against Stromelysin-1 (Homo sapiens, UniProt P08254) (assay: Inhibition of matrix metalloprotease-3, stromelysin-1).
Sequence of Stromelysin-1 (P08254 whole entry): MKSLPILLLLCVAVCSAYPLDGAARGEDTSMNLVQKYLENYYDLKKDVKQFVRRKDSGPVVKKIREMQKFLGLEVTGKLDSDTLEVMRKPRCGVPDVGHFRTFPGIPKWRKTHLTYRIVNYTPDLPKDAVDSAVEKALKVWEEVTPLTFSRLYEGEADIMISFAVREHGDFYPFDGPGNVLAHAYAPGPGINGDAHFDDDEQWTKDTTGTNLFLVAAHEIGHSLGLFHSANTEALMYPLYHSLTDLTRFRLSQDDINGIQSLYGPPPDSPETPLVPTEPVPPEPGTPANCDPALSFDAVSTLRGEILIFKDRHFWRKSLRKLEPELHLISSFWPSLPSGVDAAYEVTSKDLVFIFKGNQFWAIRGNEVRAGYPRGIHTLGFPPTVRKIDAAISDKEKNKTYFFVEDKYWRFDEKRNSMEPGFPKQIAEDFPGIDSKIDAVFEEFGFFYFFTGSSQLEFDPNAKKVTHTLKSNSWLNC

| Compound | IC50 [nM] |
| --- | --- |
| CNC(=O)[C@@H](NC(=O)[C@H](CC(C)C)C[C@@H](O)CS)C(C)(C)C | 3700 |
| CCCCCCC[C@H](C[C@H](O)CS)C(=O)N[C@H](C(=O)NC)C(C)(C)C | 9 |
| CCCCCCC[C@H](C[C@H](O)CS)C(=O)N[C@@H](CC(C)C)C(=O)NC(=O)C(CC(C)C)NCC (stereo not given in full) | 39 |

Further lines, results first:

| IC50 [nM] | Compound |
| --- | --- |
| 480 | CNC(=O)[C@@H](NC(=O)[C@@H](CC(=O)CS)CC(C)C)C(C)(C)C |
| 470 | CNC(=O)[C@@H](NC(=O)[C@H](CC(C)C)C[C@H](O)CS)C(C)(C)C |
| 430 | CCCCCCC[C@H](C[C@@H](O)CS)C(=O)N[C@H](C(=O)NC)C(C)(C)C |
| 36 | CCCCCCC[C@H](CC(=O)CS)C(=O)N[C@@H](CC(C)C)C(=O)NC(=O)C(CC(C)C)NCC (stereo not given in full) |
| 8 | CCCCCCC[C@H](CC(=O)CS)C(=O)N[C@H](C(=O)NC)C(C)(C)C |

What follows are molecules tested against Matrix metalloproteinase-9 (Homo sapiens, UniProt P14780) (assay: Inhibition of matrix metalloprotease-9, gelatinase-B).
Sequence of Matrix metalloproteinase-9 (P14780 whole entry): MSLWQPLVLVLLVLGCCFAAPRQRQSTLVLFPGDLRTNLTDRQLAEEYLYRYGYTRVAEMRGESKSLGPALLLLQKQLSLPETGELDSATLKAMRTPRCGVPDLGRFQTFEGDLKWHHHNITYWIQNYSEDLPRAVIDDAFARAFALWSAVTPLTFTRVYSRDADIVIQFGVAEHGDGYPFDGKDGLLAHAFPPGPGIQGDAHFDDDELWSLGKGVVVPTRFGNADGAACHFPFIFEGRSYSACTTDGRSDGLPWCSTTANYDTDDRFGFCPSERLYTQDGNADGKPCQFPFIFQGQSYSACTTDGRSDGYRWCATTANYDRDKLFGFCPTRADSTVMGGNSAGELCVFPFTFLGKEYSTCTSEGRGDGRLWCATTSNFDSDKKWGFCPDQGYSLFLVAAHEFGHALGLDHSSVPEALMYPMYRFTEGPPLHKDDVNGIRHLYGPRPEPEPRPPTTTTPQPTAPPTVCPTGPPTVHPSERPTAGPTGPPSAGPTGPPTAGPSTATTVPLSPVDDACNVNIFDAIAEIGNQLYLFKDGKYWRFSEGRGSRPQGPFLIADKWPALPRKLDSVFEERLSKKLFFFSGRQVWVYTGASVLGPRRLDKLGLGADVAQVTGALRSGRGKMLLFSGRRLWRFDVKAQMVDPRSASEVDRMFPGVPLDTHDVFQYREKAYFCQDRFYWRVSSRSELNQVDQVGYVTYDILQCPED

| Compound | IC50 [nM] |
| --- | --- |
| CNC(=O)[C@@H](NC(=O)[C@H](CC(C)C)C[C@@H](O)CS)C(C)(C)C | 250 |
| CCCCCCC[C@H](C[C@H](O)CS)C(=O)N[C@H](C(=O)NC)C(C)(C)C | 0.14 |
| CCCCCCC[C@H](C[C@H](O)CS)C(=O)N[C@@H](CC(C)C)C(=O)NC(=O)C(CC(C)C)NCC (stereo not given in full) | 24 |

Next, values leading:

| IC50 [nM] | Compound |
| --- | --- |
| 8 | CNC(=O)[C@@H](NC(=O)[C@@H](CC(=O)CS)CC(C)C)C(C)(C)C |
| 8 | CNC(=O)[C@@H](NC(=O)[C@H](CC(C)C)C[C@H](O)CS)C(C)(C)C |
| 12 | CCCCCCC[C@H](C[C@@H](O)CS)C(=O)N[C@H](C(=O)NC)C(C)(C)C |
| 20 | CCCCCCC[C@H](CC(=O)CS)C(=O)N[C@@H](CC(C)C)C(=O)NC(=O)C(CC(C)C)NCC (stereo not given in full) |
| 0.14 | CCCCCCC[C@H](CC(=O)CS)C(=O)N[C@H](C(=O)NC)C(C)(C)C |

The molecules below were run against T1, Interstitial collagenase (Homo sapiens, UniProt P03956) (assay: Inhibition of matrix metalloprotease-1, Collagenase-1).
T1 sequence (P03956 whole entry): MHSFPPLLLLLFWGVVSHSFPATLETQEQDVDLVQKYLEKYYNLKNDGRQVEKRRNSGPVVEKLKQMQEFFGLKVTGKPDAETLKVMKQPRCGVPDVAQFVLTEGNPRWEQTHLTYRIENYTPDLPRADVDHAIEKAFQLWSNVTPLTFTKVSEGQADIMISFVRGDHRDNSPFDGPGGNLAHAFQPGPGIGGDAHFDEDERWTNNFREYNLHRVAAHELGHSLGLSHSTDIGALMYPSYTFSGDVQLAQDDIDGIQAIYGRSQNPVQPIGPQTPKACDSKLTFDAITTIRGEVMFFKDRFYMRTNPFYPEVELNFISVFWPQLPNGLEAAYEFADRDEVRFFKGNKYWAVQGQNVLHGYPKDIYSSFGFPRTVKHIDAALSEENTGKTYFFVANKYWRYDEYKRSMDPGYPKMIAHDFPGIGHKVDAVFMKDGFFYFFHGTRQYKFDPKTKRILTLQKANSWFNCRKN

| Compound | IC50 [nM] |
| --- | --- |
| CNC(=O)[C@@H](NC(=O)[C@H](CC(C)C)C[C@@H](O)CS)C(C)(C)C | 46 |
| CCCCCCC[C@H](C[C@H](O)CS)C(=O)N[C@H](C(=O)NC)C(C)(C)C | 5 |
| CCCCCCC[C@H](C[C@H](O)CS)C(=O)N[C@@H](CC(C)C)C(=O)NC(=O)C(CC(C)C)NCC (stereo not given in full) | > 4000 |
| CNC(=O)[C@@H](NC(=O)[C@@H](CC(=O)NO)CC(C)C)C(C)(C)C [RO-319790] | 5 |

Next, values leading:

| IC50 [nM] | Compound |
| --- | --- |
| 11 | CNC(=O)[C@@H](NC(=O)[C@@H](CC(=O)CS)CC(C)C)C(C)(C)C |
| 11 | CNC(=O)[C@@H](NC(=O)[C@H](CC(C)C)C[C@H](O)CS)C(C)(C)C |
| 140 | CCCCCCC[C@H](C[C@@H](O)CS)C(=O)N[C@H](C(=O)NC)C(C)(C)C |
| > 10000 | CCCCCCC[C@H](CC(=O)CS)C(=O)N[C@@H](CC(C)C)C(=O)NC(=O)C(CC(C)C)NCC (stereo not given in full) |
| 10 | CCCCCCC[C@H](CC(=O)CS)C(=O)N[C@H](C(=O)NC)C(C)(C)C |
